Test results reported in article PMC6599048, “Polyhistidine facilitates direct membrane translocation of cell-penetrating peptides into cells” (Scientific Reports, 2019).
Primed or numbered codes have the meaning given here. Ends that are not written are not given here. FITC′ = fluorescein isothiocyanate label

How the values were obtained:
A549 cells [1] = experiment: MTT cytotoxicity assay, A549; conditions: 6 μM HL6, 0.3 μM QDs or complexes at ratio 20, 37 °C 30 min, then 24 h in complete medium, twelve independent experiments
HeLa cells = experiment: MTT cytotoxicity assay, HeLa; conditions: 6 μM HL6, 0.3 μM QDs or complexes at ratio 20, 37 °C 30 min, then 24 h in complete medium, twelve independent experiments
Protocol: One hundred % DMSO and serum-free medium were used to treat cells for 30 min as positive and negative controls, respectively. HeLa cells were pretreated with 4 °C for 30 min or heparinases I, II, and III for 6 h. Cells were then treated with HL6/QD complexes (prepared at a ratio of 20 at 37 °C for 1 h) in the absence or presence of various endocytic inhibitors at 37 °C for 30 min. After treatment, cells were washed with PBS and then incubated in complete culture medium at 37 °C for 24 h. Eighty μl of serum-free medium and 20 μl of 3-(4,5-dimethylthiazol-2-yl)-2,5-diphenyltetrazolium bromide (MTT, Sigma-Aldrich; 5 mg/ml in PBS) solution were added to each well. After incubation at 37 °C for 30 min, […] formazan crystals converted only by metabolically living cells were dissolved in 300 μl of DMSO. The 24-well plates were then read using a SpectraMax M2 microplate reader with SoftMax Pro 6.3 microplate analysis software (Molecular Devices, Sunnyvale, CA, USA) at 540 nm wavelength.

human A549 cells = experiment: Cellular internalization of FITC-CPPs, fluorescent microscopy; format: cell-based; conditions: 80 μM, serum-free RPMI 1640, 37 °C, 1 h, Hoechst 33342 counterstain
Protocol: (§1) A549 cells were washed with phosphate buffered saline (PBS) and changed to serum-free RPMI 1640 medium for protein transduction experiments. The presence of 10% serum in the medium as the solvent caused a decrease in the uptake of CPPs or their complexes/conjugates. For cellular internalization, cells were seeded at a density of about 1 × 10^5 per 35-mm petri dish and then treated with serum-free medium (as a control), 80 μM of FITC isomer I (Sigma-Aldrich, St. Louis, MO, USA), FITC-nonCPP, FITC-L6, FITC-HL6, or FITC-HR9 at 37 °C for either 1 h or various time durations. The fluorescent tracker Hoechst 33342 was used to stain the nuclei of cells in blue, according to the manufacturer’s instructions (Thermo Fisher).
Bright-field and fluorescent images were captured using an AE31 inverted Epi-fluorescence microscope (Motic, Hong Kong, China) equipped with an IS1000 eyepiece (Tucsen, Fujian, China)[17]. Excitation filter modules of green and blue fluorescent protein (GFP, BFP) channels were set at 480/30 and 350/50 nm, respectively. Emission filter modules of GFP and BFP channels were set at 535/40 and 460/50 nm, respectively.

A549 cells [2] = experiment: Time course of cellular internalization of FITC-CPPs, flow cytometry; format: cell-based, human; conditions: 80 μM, 37 °C
Protocol: as §1
Cells were seeded at a density of about 2 × 10^5 per well in a 24-well plate. Following the protein transduction, cells were washed with PBS and harvested by adding 250 μl/well of 2.9 mM ethylenediaminetetraacetic acid (EDTA, pH 6.14)[22]. […] Digital measurements were analyzed using Cell Lab Quanta SC MPL software version 1.0 (Beckman Coulter).

Substance | green fluorescence in cells (cellular internalization) (human A549 cells) | time by which green fluorescence was present (A549 cells [2]; serum-free medium) | other results
CHHHHHRRWQWRHHHHHC [HL6] |  |  | cytotoxicity (cell viability, MTT) (A549 cells [1]): No cytotoxicity was detected; cytotoxicity (cell viability, MTT) (HeLa cells): No cytotoxicity was detected
fluorescein isothiocyanate [FITC, reference compound] | did not display green fluorescence |  | 
FITC-HL6: N-terminal fluorescein isothiocyanate (FITC) labeled HL6 ({FITC′}-CHHHHHRRWQWRHHHHHC; cysteine pairing not given here) | green fluorescence | ≤ 5 min | uptake relative to the FITC-L6 group (A549 cells [2]; 60 min, serum-free medium, seven independent experiments in triplicates): 46.7 times
CHHHHHRRRRRRRRRHHHHHC [FITC-HR9, reference compound] |  | ≤ 5 min | fraction of cells showing uptake, comparison between FITC-CPPs (A549 cells [2]; all time points): higher with FITC-HR9-treated cells than FITC-HL6 and FITC-L6 at all time points
